Results as given in ChEMBL document CHEMBL1124014, “Synthesis of (aryloxy)alkylamines. 2. Novel imidazo-fused heterocycles with calcium channel blocking and local anesthetic activity” (J Med Chem, 1988).
Active and inactive are the calls of the source. The calls are words filed in the database; no cut-off is given here.

Legend:
[1] = system: Mus musculus; experiment: Concentration causing local anesthetic activity in mice; assay type: functional, organism-based
[2] = Inhibition of [3H]nitrendipine binding to calcium channels of rabbit cardiac muscle at 68 uM; assay type: functional; conditions: Oryctolagus cuniculus, Muscle tissue
[3] = species: Canis familiaris; experiment: Percent inhibition of calcium-dependent potassium-polarized smooth muscle contraction in canine trachea; assay type: functional, Canis lupus familiaris, Muscle tissue
[4] = system: Mus musculus; experiment: Concentration causing local anesthetic activity in mice; inactive; assay type: functional, organism-based
[5] = target: T1, Voltage-dependent L-type calcium channel subunit alpha-1C (Oryctolagus cuniculus, UniProt P15381); experiment: Inhibition of [3H]nitrendipine binding to calcium channels in Rabbit cardiac muscle.; assay type: tissue-based, Muscle tissue
[6] = target: T1, Voltage-dependent L-type calcium channel subunit alpha-1C; experiment: Inhibition of [3H]nitrendipine binding to calcium channels of rabbit cardiac muscle at 10 uM; assay type: functional, tissue-based, Muscle tissue; conditions: probe [3H]nitrendipine

T1 sequence (P15381 whole entry): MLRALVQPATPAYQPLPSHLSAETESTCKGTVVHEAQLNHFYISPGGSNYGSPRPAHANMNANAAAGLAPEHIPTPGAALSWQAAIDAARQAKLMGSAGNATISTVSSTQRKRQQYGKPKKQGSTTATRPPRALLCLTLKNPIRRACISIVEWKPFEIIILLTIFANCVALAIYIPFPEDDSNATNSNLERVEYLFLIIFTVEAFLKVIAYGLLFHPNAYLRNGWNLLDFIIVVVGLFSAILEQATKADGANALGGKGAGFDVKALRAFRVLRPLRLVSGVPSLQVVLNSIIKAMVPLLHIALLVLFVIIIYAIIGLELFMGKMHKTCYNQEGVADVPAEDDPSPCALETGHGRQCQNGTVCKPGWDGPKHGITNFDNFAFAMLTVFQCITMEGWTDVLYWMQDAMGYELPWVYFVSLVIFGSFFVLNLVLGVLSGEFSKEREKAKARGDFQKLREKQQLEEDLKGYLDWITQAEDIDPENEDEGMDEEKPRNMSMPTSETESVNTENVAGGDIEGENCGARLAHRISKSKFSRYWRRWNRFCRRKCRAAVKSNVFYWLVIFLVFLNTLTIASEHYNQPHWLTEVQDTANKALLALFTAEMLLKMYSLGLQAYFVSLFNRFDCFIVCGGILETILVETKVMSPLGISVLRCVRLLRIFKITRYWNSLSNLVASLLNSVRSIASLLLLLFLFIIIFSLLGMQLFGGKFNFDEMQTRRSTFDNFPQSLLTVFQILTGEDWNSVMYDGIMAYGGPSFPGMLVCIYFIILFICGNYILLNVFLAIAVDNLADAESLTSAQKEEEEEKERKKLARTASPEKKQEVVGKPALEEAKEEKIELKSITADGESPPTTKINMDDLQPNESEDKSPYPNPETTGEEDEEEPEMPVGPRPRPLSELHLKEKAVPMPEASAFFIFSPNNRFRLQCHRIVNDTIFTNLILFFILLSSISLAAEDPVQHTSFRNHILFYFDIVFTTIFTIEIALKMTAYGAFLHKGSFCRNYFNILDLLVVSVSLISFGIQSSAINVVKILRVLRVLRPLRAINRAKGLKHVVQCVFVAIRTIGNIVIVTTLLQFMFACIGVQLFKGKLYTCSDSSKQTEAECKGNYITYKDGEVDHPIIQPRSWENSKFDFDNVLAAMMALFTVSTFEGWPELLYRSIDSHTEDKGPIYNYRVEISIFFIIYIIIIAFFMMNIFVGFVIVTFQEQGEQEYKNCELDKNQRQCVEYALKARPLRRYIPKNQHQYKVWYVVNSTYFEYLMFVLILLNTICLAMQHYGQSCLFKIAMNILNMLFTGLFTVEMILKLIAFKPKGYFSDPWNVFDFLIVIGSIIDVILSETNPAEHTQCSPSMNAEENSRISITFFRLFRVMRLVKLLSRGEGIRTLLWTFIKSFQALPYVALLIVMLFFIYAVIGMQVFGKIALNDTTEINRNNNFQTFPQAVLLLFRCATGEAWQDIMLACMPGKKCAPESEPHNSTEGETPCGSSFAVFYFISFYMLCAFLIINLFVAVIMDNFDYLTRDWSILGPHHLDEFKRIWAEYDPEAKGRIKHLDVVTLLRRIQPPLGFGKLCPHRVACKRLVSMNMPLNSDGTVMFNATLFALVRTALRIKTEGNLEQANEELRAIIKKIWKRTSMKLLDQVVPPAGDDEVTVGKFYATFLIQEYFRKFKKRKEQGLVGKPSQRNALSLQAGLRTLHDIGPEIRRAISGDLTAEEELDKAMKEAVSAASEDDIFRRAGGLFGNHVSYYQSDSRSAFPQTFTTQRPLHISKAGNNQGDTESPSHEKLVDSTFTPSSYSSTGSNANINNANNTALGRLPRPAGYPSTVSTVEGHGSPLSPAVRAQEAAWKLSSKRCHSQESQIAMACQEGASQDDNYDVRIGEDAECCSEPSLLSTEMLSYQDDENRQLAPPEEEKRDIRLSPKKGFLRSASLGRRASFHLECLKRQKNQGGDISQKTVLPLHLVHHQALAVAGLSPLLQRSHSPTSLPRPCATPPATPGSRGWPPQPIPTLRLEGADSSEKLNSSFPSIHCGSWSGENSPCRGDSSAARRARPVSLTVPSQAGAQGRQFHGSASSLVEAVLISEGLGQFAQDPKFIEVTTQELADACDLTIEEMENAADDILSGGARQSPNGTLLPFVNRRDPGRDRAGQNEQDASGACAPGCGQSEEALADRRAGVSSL

SMILES	Concentration [1] [%]	other results
CCCCN(CCCC)CCCOc1ccc(-c2cn3cccnc3n2)cc1	> 1	inhibition at 68 µM [2]: 43%
CCCCN(CCCC)CCCOc1ccc(-c2cn3nccnc3n2)cc1.Cl.Cl	–	Inhibition [3]: 46%; Concentration [4]: inactive
CCCCN(CCCC)CCCOc1ccc(-c2cn3cccc(C)c3n2)cc1	0.01	–
COC(=O)C1=C(C)NC(C)=C(C(=O)OC)C1c1ccccc1[N+](=O)[O-] [NIFEDIPINE]	> 1	Inhibition [3]: 95%
CCCCN(CCCC)CCCOc1ccc(-c2cn3nc(C)sc3n2)cc1	–	Concentration [4]: inactive
COc1ccc([C@@H]2Sc3ccccc3N(CCN(C)C)C(=O)[C@@H]2OC(C)=O)cc1 [DILTIAZEM]	–	Inhibition [3]: 96%
CCCCN(CCCC)CCCOc1ccc(C(=O)c2cnc3ncccn23)cc1.Cl.Cl	–	Inhibition [3]: 44%; Concentration [4]: inactive
CCCCN(CCCC)CCCOc1c(OC)cc(-c2cn3cccc(C)c3n2)cc1OC	0.1	–
CCCCN(CCCC)CCCCOc1ccc(-c2cn3cccc(C)c3n2)cc1	1	–
CCCCN(CCCC)CCCOc1ccc(-c2cn3cccc([N+](=O)[O-])c3n2)cc1	> 1	–
CCCCN(CCCC)CCCOc1ccc(-c2cn3ccc(C)cc3n2)cc1	0.1	–
CCCCN(CCCC)CCCOc1ccc(C(=O)c2cn3ccc(C)cc3n2)cc1	1	–
CCCCN(CCCC)CCCOc1ccc(-c2nc3sccn3c2C)cc1	0.1	–
CCCCN(CCCC)CCCOc1ccc(C(=O)c2cnc3nc(C)ccn23)cc1	–	Concentration [4]: inactive; IC50 [5]: 6.1 µM
CCCCN(CCCC)CCCOc1ccc(-c2cn3cc(C)ccc3n2)cc1	0.1	–
CCCCN(CCCC)CCCOc1ccc(-c2cn3c(n2)sc2ccccc23)cc1.Cl.Cl	1	Inhibition [3]: 15%
CCCCN(CCCC)CCCOc1ccc(C(=O)c2cn3cccc(C)c3n2)cc1	1	IC50 [5]: 6 µM
CCCCN(CCCC)CCCOc1ccc(-c2cn3c(C)cccc3n2)cc1	0.1	–
CCCCN(CCCC)CCCOc1ccc(-c2cn3cccc(O)c3n2)cc1	0.1	–
CCCCN(CCCC)CCCOc1ccc(-c2cn3cccc(OCc4ccccc4)c3n2)cc1	0.1	inhibition at 10 µM [6]: 45%

SMILES	Concentration [1] [%]	other results
Cc1cccn2cc(-c3ccc(OCCCN(C)C)cc3)nc12	1	–
CCCCN(CCCC)CCCOc1ccc(C(=O)c2cnc3c(C)cccn23)cc1	0.1	IC50 [5]: 0.5 µM
CCN(CC)CC(=O)Nc1c(C)cccc1C	1	–
Cc1cccn2cc(-c3ccc(OCCCN4CCCCC4)cc3)nc12	1	–
CCCCCN(CCCCC)CCCOc1ccc(-c2cn3cccc(C)c3n2)cc1	0.1	–
CCCCN(CCCC)CCCOc1ccc(-c2cn3cccc(C)c3n2)cc1C	0.1	–
CCCCN(CCCC)CCCOc1ccc(-c2nc3c(C)cccn3c2C)cc1	0.1	–
CC(C)COCC(CN(Cc1ccccc1)c1ccccc1)N1CCCC1 (stereo not drawn) [BEPRIDIL]	–	Inhibition [3]: 81%; IC50 [5]: 22 µM
CCCCN(CCCC)CCCOc1ccc(C(=O)c2cnc3ccc(Br)cn23)cc1	0.1	–
COc1ccc(CCN(C)CCCC(C#N)(c2ccc(OC)c(OC)c2)C(C)C)cc1OC (stereo not drawn)	1	Inhibition [3]: 93%
CCCCN(CCCC)CCCOc1ccc(-c2cn3ccsc3n2)cc1	> 1	–
CCCCN(CCCC)CCCOc1ccc(-c2cn3cc(Br)ccc3n2)cc1	1	–
CCCCN(CCCC)CCCOc1ccc(-c2cn3ccc(C)nc3n2)cc1	–	Concentration [4]: inactive
CCCCN(CCCC)CCCOc1ccc(-c2cn3cccc(C)c3n2)c(C)c1	0.1	–
CCCCN(CCCC)CCCOc1ccc(-c2cn3ccccc3n2)cc1.Cl	0.1	Inhibition [3]: 5.4%
CCCCN(CCCC)CCCOc1ccc(-c2cn3cccc(C)c3n2)cc1OC	0.01	–
CCCCN(CCCC)CCCOc1ccc(C(=O)c2cn3cc(Br)ccc3n2)cc1.Cl.Cl	1	Inhibition [3]: 50%
CCCN(CCC)CCCOc1ccc(-c2cn3cccc(C)c3n2)cc1	0.1	–
Cc1cccn2cc(-c3ccc(OCCCn4ccnc4)cc3)nc12	> 1	–
Cc1cccn2cc(-c3ccc(OCCCN4CCOCC4)cc3)nc12	> 1	–
